# In patent US8364409B2 (priority 2006, dated 2013):
# Tested on: sensitive M bovis strain
# Format: cell-based, Mycobacterium bovis BCG
smiles,measurement,value
"NNC(=O)c1ccncc1 [INH, isoniazid]",stress response (Impedance Response profile),varies with the drug concentration
